Assay results: US20260234164A1, “BIPHENYL COMPOUND AS IMMUNOMODULATOR, PREPARATION METHOD THEREFOR AND USE THEREOF” (SHENZHEN CHIPSCREEN BIOSCIENCES CO., LTD., priority 2021, published 2026)

How the values were obtained:
PD-1/PD-L1 binding = target: T1, PD-1/PD-L1 binding (Homo sapiens, UniProt Q9NZQ7); test: HTRF inhibition of PD-1/PD-L1 binding in vitro; conditions: His-PD-1 100 nM, PD-L1-Fc 2 nM, read-out: IC50 inhibiting PD-1/PD-L1 binding in vitro
T1 construct: purchased Sino Biological Inc. 10084-H02H-100 (PD-L1-Fc); 10377-H08H-50 (His-PD-1)
From the text: Homogeneous Time-Resolved Fluorescence (HTRF): This method used the recombinant human PD-L1 protein fused to express the hFc tag and the recombinant human PD-1 protein fused to express the His tag, both of which were interacting ligands and receptors. When the anti-hFc antibody containing Eu element chelation marker and the anti-His antibody labeled with XL665 fluorescein were bound with the above two corresponding labels, and excited by a laser with a wavelength of 320 nm, the ligand-receptor binding enabled the energy to be transferred from the Eu element to the XL665 fluorescein, which was excited to emit light at a wavelength of 665 nm. However, when an inhibitor of the interaction between PD-L1 and PD-1 was added, the binding of the ligand to the receptor was destroyed, so that the distance between Eu and XL665 was far away, the energy cannot be transferred, and XL665 would not be excited.
(§1) Recombinant human PD-1 protein with His tag (His-PD-1 protein, Cat #: 10377-H08H-50), and recombinant human PD-L1-Fc fusion protein (PD-L1-Fc fusion protein, Cat #: 10084-H02H-100) were purchased from Sino Biological Inc., anti-hFc-Eu^+ antibody and anti-His-XL665 antibody were purchased from Cisbio Company, and other related reagents such as dilution buffer (Diluent buffer 5, Cat #: 62DL5DDC), detection buffer (PPI-Europium detection buffer, Cat #: 61DB9RDF) were purchased from Cisbio Company. Fluorescence detection instrument Tecan (Spark 10 M) was purchased from Switzerland Tecan Company.
(§2) (1) Experimental preparation: The test compound was diluted with dilution buffer into different concentration gradients (the highest final concentration in 20 μL final reaction system was 10 μM), His-PD-1 protein was diluted to 800 nM (the final concentration in 20 μL final reaction system was 100 nM), and the PD-L1-Fc fusion protein was diluted to 16 nM (final concentration was 2 nM). The anti-His-XL665 antibody and anti-hFc-Eu^3+ antibody were respectively diluted 20 times and 100 times using the detection buffer according to the reagent requirements.
(§3) (2) 5 μL of test compound, 2.5 μL of PD-L1-Fc fusion protein and 2.5 μL of His-PD-1 protein solution were mixed, and incubated at room temperature for 15 min. Then the system was added with 5 μL of anti-His-XL665 antibody and 5 μL of anti-hFc-Eu^3+ antibody, incubated for another 3 h, and then detected.
(3) When detecting the reaction, a control group was also provided, including a 0% inhibition positive control without adding test compounds and a 100% inhibition negative control without adding PD-1 protein. All detections were performed with duplicates.
(§4) (4) The fluorescence signal of each well was measured using a fluorescence detector Tecan (Spark 10M) at an excitation wavelength of 320 nm, and emission wavelengths of 620 nm and 665 nm, respectively. The intensity of the mutual binding of PD-1 and PD-L1 referred to the ratio of fluorescence signals Em665/Em620.
(§5) (5) The binding inhibition rate of the test compound was calculated as follows: Inhibition rate (%)=[1−(Fluorescence signal ratio of detection well-fluorescence signal ratio of 100% inhibition negative control)]/(fluorescence signal ratio of 0% inhibition positive control-fluorescence signal ratio of 100% inhibition negative control)×100%. After calculating the inhibition rate on PD-1/PD-L1 binding of the test compounds with different concentration gradients, the 50% inhibitory concentration (IC50) was calculated.

CD80/PD-L1 binding = target: T2, CD80/PD-L1 binding (Homo sapiens, UniProt Q9NZQ7); test: HTRF inhibition of CD80/PD-L1 binding in vitro; conditions: His-CD80 100 nM, PD-L1-Fc 2 nM, read-out: IC50 inhibiting CD80/PD-L1 binding in vitro
T2 construct: purchased Sino Biological Inc. 10084-H02H-100 (PD-L1-Fc); 10698-H08H-100 (His-CD80)
From the text: In addition to PD-1, PD-L1 can also exert immunosuppressive activity by binding to CD80. Similarly, in vitro experiments of binding or binding inhibition of CD80 and PD-L1 can also be measured by homogeneous time-resolved fluorescence (HTRF). When the anti-hFc-Eu^3+ antibody and anti-His-XL665 antibody were bound to the hFC tag fused to PD-L1 and the His tag fused to CD80 respectively, and excited with a 320 nm wavelength laser, the binding of PD-L1 and CD80 enabled energy to be transferred from the Eu element to the XL665 fluorescein, which was excited to emit light. When the inhibitor of the interaction between PD-L1 and CD80 was added, the combination of the two was destroyed, so that the distance between Eu and XL665 was far away, the energy cannot be transferred, and XL665 would not be excited.
as §1, with “CD80” for “PD-1”, “(His-CD80” for “(His-PD-1”, “10698-H08H-100),” for “10377-H08H-50),”, “anti-hFc-Eu^3+” for “anti-hFc-Eu^+”
as §2, with “His-CD80” for “His-PD-1”
as §3, with “Hid-CD80” for “PD-L1-Fc fusion”, “[…]” for “His-PD-1”
(3) When detecting the reaction, a control group was provided, including a 0% inhibition positive control without adding test compounds and a 100% inhibition negative control without adding CD-80 protein. All detections were performed with duplicates.
as §4, with “CD80” for “PD-1”
as §5, with “CD80/PD-L1” for “PD-1/PD-L1”

T1 sequence (Q9NZQ7 19-239 limits assumed): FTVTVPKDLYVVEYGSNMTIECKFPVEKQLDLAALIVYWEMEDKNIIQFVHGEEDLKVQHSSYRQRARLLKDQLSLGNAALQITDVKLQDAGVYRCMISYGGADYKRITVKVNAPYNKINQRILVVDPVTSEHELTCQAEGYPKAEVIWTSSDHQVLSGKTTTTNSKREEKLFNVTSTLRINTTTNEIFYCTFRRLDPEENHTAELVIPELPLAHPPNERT
T2 sequence (Q9NZQ7 19-239 limits assumed): as above

SMILES	IC50 (PD-1/PD-L1 binding) [nM]	IC50 (CD80/PD-L1 binding) [nM]
[2H]C([2H])([2H])OCC12CCC(CCN3CCc4c(nc(C(=O)Nc5cccc(-c6cccc(NC(=O)c7nc8c(n7C([2H])([2H])[2H])CCN(CCC79CCC(C(=O)O)(CC7)C9)C8)c6Cl)c5C)n4C([2H])([2H])[2H])C3)(CC1)C2 [Compound I-9, 4-(2-(2-((2-chloro-3′-(5-(2-(4-((methoxy-d3)methyl)bicyclo[2.2.1]heptane-1-yl)ethyl)-1-(methyl-d3)-4,5,6,7-tetrahydro-1H-imidazo[4,5-c]pyridine-2-carboxamido)-2′-methyl-[1,1′-biphenyl]-3-yl)carbamoyl)-1-(methyl-d3)-1,4,6,7-tetrahydro-5H-imidazo[4,5-c]pyridin-5-yl)ethyl)bicyclo[2.2.1]heptane-1-carboxylic acid]	3.77	3.42
[2H]C([2H])([2H])OCC12CCC(CCN3CCc4c(nc(C(=O)Nc5cccc(-c6cccc(NC(=O)c7nc8c(n7C([2H])([2H])[2H])CCN(CCC79CCC(C(=O)O)(CC7)C9)C8)c6C)c5Cl)n4C([2H])([2H])[2H])C3)(CC1)C2 [Compound I-11, 4-(2-(2-((2′-chloro-3′-(5-(2-(4-((methoxy-d3)methyl)bicyclo[2.2.1]heptane-1-yl)ethyl)-1-(methyl-d3)-4,5,6,7-tetrahydro-1H-imidazo[4,5-c]pyridine-2-carboxamido)-2-methyl-[1,1′-biphenyl]-3-yl)carbamoyl)-1-(methyl-d3)-1,4,6,7-tetrahydro-5H-imidazo[4,5-c]pyridin-5-yl)ethyl)bicyclo[2.2.1]heptane-1-carboxylic acid]	4.21	3.21
[2H]C([2H])([2H])n1c(C(=O)Nc2cccc(-c3cccc(NC(=O)c4nc5c(n4C([2H])([2H])[2H])CCN(CCC46CCC(COC)(CC4)C6)C5)c3Cl)c2C)nc2c1CCN(CCC13CCC(C(=O)O)(CC1)C3)C2 [Compound I-12, 4-(2-(2-((2′-chloro-3′-(5-(2-(4-(methoxymethyl)bicyclo[2.2.1]heptane-1-yl)ethyl)-1-(methyl-d3)-4,5,6,7-tetrahydro-1H-imidazo[4,5-c]pyridine-2-carboxamido)-2-methyl-[1,1′-biphenyl]-3-yl)carbamoyl)-1-(methyl-d3)-1,4,6,7-tetrahydro-5H-imidazo[4,5-c]pyridin-5-yl)ethyl)bicyclo [2.2.1]heptane-1-carboxylic acid]	3.8	2.94

Stronger by IC50 (PD-1/PD-L1 binding), values ahead:

IC50 (PD-1/PD-L1 binding) [nM]	IC50 (CD80/PD-L1 binding) [nM]	SMILES
1.02	1.12	[2H]C([2H])([2H])OCC12CCC(CCN3CCc4c(nc(C(=O)Nc5cccc(-c6cccc(NC(=O)c7nc8c(n7C([2H])([2H])[2H])CCN(CCC79CCC(C(=O)O)(CC7)C9)C8)c6Cl)c5Cl)n4C([2H])([2H])[2H])C3)(CC1)C2 [Compound I-5, 4-(2-(2-((2,2′-dichloro-3′-(5-(2-(4-((methoxy-d3)methyl)bicyclo[2.2.1]heptane-1-yl)ethyl)-1-(methyl-d3)-4,5,6,7-tetrahydro-1H-imidazo[4,5-c]pyridine-2-carboxamido)-[1,1′-biphenyl]-3-yl)carbamoyl)-1-(methyl-d3)-1,4,6,7-tetrahydro-5H-imidazo[4,5-c]pyridin-5-yl)ethyl)bicyclo[2.2.1]heptane-1-carboxylic acid]
1	0.95	[2H]C([2H])([2H])n1c(C(=O)Nc2cccc(-c3cccc(NC(=O)c4nc5c(n4C([2H])([2H])[2H])CCN(CCC46CCC(C(=O)O)(CC4)C6)C5)c3Cl)c2Cl)nc2c1CCN(CCC13CCC(COC)(CC1)C3)C2 [Compound I-6, 4-(2-(2-((2,2′-dichloro-3′-(5-(2-(4-((methoxy)methyl)bicyclo[2.2.1]heptane-1-yl)ethyl)-1-(methyl-d3)-4,5,6,7-tetrahydro-1H-imidazo[4,5-c]pyridine-2-carboxamido)-[1,1′-biphenyl]-3-yl)carbamoyl)-1-(methyl-d3)-1,4,6,7-tetrahydro-5H-imidazo[4,5-c]pyridin-5-yl)ethyl)bicyclo[2.2.1]heptane-1-carboxylic acid]
3.59	4.26	[2H]C([2H])([2H])n1c(C(=O)Nc2cccc(-c3cccc(NC(=O)c4nc5c(n4C([2H])([2H])[2H])CCN(CCC46CCC(C(=O)O)(CC4)C6)C5)c3Cl)c2C)nc2c1CCN(CCC13CCC(COC)(CC1)C3)C2 [Compound I-10, 4-(2-(2-((2-chloro-3′-(5-(2-(4-(methoxymethyl)bicyclo[2.2.1]heptane-1-yl)ethyl)-1-(methyl-d3)-4,5,6,7-tetrahydro-1H-imidazo[4,5-c]pyridine-2-carboxamido)-2′-methyl-[1,1′-biphenyl]-3-yl)carbamoyl)-1-(methyl-d3)-1,4,6,7-tetrahydro-5H-imidazo[4,5-c]pyridin-5-yl)ethyl)bicyclo[2.2.1]heptane-1-carboxylic acid]
